Consider 10 molecules from ChEMBL document CHEMBL5465560, “Selectivity Literature for EUbOPEN Chemogenomic Library” (2024).

Assay [1] has as its target T1, Phosphorylase b kinase gamma catalytic chain, liver/testis isoform (Homo sapiens) (UniProt P15735).
T1 sequence (whole entry): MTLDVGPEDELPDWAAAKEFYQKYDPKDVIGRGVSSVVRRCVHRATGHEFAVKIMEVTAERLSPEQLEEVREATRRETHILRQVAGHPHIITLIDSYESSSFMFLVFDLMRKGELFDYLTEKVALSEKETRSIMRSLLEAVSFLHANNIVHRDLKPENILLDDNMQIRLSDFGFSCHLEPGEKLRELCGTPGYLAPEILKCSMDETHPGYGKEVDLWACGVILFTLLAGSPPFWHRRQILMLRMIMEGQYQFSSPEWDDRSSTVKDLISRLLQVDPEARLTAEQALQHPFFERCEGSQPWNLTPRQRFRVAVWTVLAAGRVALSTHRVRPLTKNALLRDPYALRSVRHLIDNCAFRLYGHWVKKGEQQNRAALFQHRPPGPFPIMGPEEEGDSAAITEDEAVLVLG
Nature of the assay: Selectivity interaction (SelectScreen profiling (Invitrogen)) EUB0000607a PHKG2. The conditions noted are these: at 2 µM.

Assay [2] deals with Histone-lysine N-methyltransferase SUV39H2 (Homo sapiens) (UniProt Q9H5I1). Nature of the assay: Selectivity interaction (Methyltransferase screen (Scintillation proximity assays)) EUB0000255b SUV39H2.
Sequence of Histone-lysine N-methyltransferase SUV39H2 (Homo sapiens) (Q9H5I1 whole entry): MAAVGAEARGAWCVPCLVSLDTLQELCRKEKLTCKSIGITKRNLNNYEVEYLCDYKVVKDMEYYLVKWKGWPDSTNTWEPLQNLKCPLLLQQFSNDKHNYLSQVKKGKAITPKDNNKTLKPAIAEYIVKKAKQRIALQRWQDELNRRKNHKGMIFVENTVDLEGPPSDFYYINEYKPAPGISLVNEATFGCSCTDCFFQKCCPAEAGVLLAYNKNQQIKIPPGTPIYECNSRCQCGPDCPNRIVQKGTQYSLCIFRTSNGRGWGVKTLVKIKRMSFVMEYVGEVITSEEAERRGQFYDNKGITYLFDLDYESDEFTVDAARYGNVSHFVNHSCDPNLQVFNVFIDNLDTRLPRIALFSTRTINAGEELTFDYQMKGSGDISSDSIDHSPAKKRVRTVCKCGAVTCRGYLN
Assay [3] addresses Non-receptor tyrosine-protein kinase TYK2 (Homo sapiens, UniProt P29597). Description: Selectivity interaction (KinomeScan (DiscoverX)) EUB0000655a TYK2. The following applies: at 10 µM.
In assay [4] the target is T2, Phosphatidylinositol 4,5-bisphosphate 3-kinase catalytic subunit delta isoform (Homo sapiens) (UniProt O00329).
T2 sequence (whole entry): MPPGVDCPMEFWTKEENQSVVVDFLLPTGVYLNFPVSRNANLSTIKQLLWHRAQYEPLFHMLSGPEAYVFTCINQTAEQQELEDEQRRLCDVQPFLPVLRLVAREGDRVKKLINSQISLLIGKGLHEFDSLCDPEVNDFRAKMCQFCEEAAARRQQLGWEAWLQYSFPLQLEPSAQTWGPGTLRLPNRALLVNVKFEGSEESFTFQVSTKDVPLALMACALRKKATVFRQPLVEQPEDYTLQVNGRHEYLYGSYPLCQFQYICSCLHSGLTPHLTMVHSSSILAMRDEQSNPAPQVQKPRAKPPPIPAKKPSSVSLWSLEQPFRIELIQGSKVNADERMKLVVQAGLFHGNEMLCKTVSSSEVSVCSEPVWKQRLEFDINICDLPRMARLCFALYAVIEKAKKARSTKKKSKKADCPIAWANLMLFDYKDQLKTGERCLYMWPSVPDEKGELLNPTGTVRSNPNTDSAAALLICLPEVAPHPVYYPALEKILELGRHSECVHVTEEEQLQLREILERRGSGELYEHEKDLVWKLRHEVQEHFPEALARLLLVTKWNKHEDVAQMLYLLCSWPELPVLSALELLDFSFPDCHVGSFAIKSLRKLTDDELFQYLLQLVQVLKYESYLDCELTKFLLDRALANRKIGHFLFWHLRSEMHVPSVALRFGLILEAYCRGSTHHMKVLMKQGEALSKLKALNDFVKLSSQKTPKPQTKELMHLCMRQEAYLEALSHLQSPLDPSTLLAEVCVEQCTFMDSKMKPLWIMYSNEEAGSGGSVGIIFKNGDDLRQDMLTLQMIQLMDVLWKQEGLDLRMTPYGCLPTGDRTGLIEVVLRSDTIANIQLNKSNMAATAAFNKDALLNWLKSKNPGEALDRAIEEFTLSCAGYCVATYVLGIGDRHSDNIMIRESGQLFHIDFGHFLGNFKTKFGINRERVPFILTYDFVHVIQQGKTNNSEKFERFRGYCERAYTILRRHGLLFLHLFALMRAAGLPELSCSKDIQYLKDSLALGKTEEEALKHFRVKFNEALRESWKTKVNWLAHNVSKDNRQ
Description: Selectivity interaction (KinomeScan (DiscoverX)) EUB0001079a PIK3CD. The following applies: at 1 µM.

The target of assay [5] is T2, Phosphatidylinositol 4,5-bisphosphate 3-kinase catalytic subunit delta isoform (Homo sapiens). Nature of the assay: Selectivity interaction (KinomeScan (DiscoverX)) EUB0001619a PIK3CD. The following applies: at 1 µM.
Assay [6] has as its target Insulin-like growth factor 1 receptor (Homo sapiens, UniProt P08069). Description: Selectivity interaction (Kinase panel (33PanQinase(R) Activity Assay)) EUB0000877a IGF1R.
Assay [7] addresses 1-phosphatidylinositol 3-phosphate 5-kinase (Homo sapiens) (UniProt Q9Y2I7). Nature of the assay: Selectivity interaction (KinomeScan (DiscoverX)) EUB0001049a PIKFYVE. The conditions noted are these: at 1 µM.
Another assay concerns the target Histamine H1 receptor (Homo sapiens, UniProt P35367). Nature of the assay: Selectivity interaction (Eurofins CEREP Diversity Profile (receptors and ion channels)) EUB0000279b HRH1. The following applies: at 10 µM.
Assay [8] concerns the target T3, Mitogen-activated protein kinase kinase kinase kinase 3 (Homo sapiens) (UniProt Q8IVH8).
T3 sequence (whole entry): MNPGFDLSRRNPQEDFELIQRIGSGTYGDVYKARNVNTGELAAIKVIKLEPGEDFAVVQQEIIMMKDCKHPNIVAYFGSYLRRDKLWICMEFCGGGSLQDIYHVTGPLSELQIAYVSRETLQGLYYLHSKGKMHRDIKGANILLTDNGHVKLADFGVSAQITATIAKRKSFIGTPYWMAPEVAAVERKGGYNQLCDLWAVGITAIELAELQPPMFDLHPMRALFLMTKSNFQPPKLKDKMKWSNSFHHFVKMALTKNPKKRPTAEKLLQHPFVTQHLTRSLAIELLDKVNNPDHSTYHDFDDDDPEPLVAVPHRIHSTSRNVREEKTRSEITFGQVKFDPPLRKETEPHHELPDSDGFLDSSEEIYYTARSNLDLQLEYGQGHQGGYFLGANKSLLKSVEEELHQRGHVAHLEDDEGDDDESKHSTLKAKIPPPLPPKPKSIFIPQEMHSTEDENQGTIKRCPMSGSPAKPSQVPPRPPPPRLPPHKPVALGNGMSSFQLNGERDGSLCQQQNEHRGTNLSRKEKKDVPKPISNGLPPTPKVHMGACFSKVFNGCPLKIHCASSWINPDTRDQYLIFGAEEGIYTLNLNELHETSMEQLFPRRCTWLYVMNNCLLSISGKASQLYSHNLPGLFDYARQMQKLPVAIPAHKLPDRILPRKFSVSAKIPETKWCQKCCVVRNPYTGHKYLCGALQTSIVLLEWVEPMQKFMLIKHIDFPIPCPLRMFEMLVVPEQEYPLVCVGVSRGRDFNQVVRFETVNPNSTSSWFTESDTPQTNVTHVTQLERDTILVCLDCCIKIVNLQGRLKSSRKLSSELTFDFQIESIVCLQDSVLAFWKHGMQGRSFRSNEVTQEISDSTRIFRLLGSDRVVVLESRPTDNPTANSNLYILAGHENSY
Nature of the assay: Selectivity interaction (KinomeScan (DiscoverX)) EUB0000092b MAP4K3. The following applies: at 10 µM.

Assay [9] concerns the target Cyclin-dependent kinase 5 (Homo sapiens, UniProt Q00535). Description: Selectivity interaction (KinomeScan (DiscoverX)) EUB0000045b CDK5.

Sequence of Cyclin-dependent kinase 5 (Q00535 whole entry, looked up): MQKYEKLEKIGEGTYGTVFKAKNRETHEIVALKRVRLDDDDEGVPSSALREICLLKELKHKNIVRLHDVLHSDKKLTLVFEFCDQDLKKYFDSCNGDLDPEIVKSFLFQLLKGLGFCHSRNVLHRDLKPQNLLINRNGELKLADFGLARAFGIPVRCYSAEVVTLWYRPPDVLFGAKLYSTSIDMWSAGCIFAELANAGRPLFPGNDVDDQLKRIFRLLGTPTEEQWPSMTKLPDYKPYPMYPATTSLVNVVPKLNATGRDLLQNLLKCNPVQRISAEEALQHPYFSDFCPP
Sequence of Non-receptor tyrosine-protein kinase TYK2 (P29597 whole entry, canonical isoform): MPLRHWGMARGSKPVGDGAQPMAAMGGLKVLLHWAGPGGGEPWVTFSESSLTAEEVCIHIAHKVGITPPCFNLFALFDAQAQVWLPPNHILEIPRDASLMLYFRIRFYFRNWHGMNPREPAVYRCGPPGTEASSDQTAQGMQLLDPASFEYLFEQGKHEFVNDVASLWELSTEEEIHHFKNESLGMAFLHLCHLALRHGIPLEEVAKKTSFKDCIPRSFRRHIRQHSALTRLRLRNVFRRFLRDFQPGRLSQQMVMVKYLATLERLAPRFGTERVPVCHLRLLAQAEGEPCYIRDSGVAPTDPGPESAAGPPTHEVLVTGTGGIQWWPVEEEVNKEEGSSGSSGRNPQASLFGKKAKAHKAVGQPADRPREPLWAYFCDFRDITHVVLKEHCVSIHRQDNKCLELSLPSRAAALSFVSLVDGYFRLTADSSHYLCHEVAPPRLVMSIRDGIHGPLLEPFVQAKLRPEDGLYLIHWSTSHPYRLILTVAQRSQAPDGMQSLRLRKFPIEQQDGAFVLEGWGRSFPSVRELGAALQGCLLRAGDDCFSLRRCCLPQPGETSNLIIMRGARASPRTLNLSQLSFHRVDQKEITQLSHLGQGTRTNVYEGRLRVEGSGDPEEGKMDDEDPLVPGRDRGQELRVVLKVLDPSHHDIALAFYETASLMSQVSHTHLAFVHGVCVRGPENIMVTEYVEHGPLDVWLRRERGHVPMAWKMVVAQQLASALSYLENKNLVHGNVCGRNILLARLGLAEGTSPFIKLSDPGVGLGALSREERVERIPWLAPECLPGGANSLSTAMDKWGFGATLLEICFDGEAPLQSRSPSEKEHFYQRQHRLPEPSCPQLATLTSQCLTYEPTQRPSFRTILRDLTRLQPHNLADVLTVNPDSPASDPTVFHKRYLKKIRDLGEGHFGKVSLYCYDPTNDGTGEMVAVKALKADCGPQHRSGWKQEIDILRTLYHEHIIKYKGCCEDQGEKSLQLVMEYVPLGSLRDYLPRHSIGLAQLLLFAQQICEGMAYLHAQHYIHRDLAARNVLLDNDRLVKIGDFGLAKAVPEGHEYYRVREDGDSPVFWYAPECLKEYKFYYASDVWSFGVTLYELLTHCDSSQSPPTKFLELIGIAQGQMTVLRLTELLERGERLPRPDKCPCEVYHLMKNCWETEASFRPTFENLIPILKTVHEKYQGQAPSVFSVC
Sequence of Histamine H1 receptor (P35367 whole entry): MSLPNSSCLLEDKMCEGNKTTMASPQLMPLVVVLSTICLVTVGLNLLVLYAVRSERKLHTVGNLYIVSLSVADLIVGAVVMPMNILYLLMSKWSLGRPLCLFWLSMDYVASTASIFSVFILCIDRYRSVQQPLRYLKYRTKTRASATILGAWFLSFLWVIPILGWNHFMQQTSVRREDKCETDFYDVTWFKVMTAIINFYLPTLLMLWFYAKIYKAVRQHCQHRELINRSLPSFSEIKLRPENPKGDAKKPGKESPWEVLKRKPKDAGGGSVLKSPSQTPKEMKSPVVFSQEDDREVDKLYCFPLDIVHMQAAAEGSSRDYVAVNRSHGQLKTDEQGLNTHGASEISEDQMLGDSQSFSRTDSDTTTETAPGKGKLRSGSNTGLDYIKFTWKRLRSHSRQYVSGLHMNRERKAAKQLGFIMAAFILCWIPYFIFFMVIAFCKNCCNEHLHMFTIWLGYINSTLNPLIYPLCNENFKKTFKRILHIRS
Sequence of 1-phosphatidylinositol 3-phosphate 5-kinase (Homo sapiens) (Q9Y2I7 whole entry): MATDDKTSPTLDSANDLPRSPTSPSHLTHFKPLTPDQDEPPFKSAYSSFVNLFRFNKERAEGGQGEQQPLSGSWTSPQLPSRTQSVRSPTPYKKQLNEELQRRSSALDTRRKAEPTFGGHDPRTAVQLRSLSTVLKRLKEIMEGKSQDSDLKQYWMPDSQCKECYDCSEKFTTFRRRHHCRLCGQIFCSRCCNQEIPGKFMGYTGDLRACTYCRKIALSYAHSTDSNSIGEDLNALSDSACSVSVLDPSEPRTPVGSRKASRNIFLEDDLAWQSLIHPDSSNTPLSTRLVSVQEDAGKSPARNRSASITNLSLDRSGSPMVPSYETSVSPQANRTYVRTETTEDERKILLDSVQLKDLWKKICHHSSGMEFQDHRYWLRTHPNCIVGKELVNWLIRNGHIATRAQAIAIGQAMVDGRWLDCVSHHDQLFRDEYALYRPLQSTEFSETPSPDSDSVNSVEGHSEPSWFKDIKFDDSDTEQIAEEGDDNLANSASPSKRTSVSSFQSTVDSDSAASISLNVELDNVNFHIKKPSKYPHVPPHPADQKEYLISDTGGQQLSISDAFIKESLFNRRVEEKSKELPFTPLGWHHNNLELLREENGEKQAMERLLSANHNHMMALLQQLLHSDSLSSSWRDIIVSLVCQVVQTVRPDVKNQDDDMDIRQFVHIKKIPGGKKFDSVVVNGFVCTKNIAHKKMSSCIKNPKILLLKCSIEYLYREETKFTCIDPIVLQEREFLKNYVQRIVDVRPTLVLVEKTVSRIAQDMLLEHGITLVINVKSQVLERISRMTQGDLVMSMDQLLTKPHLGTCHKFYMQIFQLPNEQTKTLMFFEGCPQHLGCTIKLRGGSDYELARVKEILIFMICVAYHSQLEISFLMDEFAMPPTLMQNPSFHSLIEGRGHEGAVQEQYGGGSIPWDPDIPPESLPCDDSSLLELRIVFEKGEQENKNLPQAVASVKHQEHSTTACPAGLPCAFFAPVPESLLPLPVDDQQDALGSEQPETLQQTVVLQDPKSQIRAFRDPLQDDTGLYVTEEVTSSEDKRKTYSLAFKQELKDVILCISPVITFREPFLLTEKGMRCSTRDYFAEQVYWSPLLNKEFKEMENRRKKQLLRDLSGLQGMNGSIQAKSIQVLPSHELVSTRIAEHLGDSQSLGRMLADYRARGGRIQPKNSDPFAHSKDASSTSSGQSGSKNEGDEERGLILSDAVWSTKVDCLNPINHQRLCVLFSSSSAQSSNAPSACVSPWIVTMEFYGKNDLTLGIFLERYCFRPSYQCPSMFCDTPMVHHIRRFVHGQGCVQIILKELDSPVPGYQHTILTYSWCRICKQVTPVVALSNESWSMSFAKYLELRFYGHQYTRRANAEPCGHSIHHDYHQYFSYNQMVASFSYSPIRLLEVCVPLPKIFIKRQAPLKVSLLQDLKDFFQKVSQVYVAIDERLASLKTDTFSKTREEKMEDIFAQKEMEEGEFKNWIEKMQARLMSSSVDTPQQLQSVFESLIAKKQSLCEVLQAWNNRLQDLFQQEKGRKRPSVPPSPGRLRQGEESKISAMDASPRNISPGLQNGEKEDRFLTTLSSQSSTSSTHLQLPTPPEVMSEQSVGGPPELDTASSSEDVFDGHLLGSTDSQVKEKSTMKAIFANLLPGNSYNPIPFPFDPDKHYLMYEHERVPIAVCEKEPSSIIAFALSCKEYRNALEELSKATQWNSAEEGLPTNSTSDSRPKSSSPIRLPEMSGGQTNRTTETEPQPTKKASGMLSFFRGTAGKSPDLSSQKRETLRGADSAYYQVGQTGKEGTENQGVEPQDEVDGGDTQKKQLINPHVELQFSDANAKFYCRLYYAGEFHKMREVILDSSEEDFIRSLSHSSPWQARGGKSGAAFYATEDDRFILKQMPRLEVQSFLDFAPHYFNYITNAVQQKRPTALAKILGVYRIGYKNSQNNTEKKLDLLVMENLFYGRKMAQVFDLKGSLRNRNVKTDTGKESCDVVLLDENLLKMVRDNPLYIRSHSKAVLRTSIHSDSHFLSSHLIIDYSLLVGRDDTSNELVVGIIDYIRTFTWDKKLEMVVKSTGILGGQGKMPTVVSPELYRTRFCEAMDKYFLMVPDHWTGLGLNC

In assay [1], `CNC(=O)Nc1ccc(-c2nc(N3CC4CCC(C3)O4)c3cnn(C4CCC5(CC4)OCCO5)c3n2)cc1` came in with a % of inhibition of 12%.
On to `COCCN1CCC(c2cc(CN(C)C(=O)c3cccc(Oc4ccccc4)c3)ccn2)CC1`, for which the results for the % activity in [2] (at 1 µM) and in assay [2] (at 10 µM) were greater than 95% and greater than 90%, respectively.
With `CN(C)CCOc1ccc(-c2nc(-c3ccncc3)c(-c3ccc4c(c3)CC/C4=N\O)[nH]2)cc1`, the % of control in assay [3] stood at 52%.
As to `Nc1cnc(N2CCc3cc(S(=O)(=O)Nc4c(F)cc(Cl)cc4F)cc(N4CCCC4=O)c32)nc1` [TP-020n], in assay [4], the % of control turned out to be 88%.
As to `N#Cc1cccc(-c2c[nH]c3ncnc(N4CCOCC4)c23)c1`, the % of control in assay [5] was 100%.
The molecule `CCC(=O)N1CC[C@H](Nc2ncnc3c2CN(c2cnc(OC)c(C(F)(F)F)c2)CC3)C1` [LENIOLISIB] yielded an IC50 in assay [6] greater than 10 µM.
In turn, `COc1cc(Nc2nc(C)cc(-c3cnn4nc(OC)ccc34)n2)cc(C(F)(F)F)c1` registered a % of control in assay [7] of 100%.
Consider `CC(=O)c1cc(-c2ccccc2OCC2CC2)c2ncccn12`, for which the % of control at Histamine H1 receptor turned out to be 107%.
As for `CCC(=O)N1CCN(c2ccc(-n3c(=O)ccc4cnc5ccc(-c6cnc7ccccc7c6)cc5c43)cc2C(F)(F)F)CC1`, the % of control in assay [8] came out at 1.9%.
Turning to `C=CC(=O)Nc1cc(-n2c(=O)ccc3cnc4ccc(-c5ccc(NS(C)(=O)=O)cc5)cc4c32)ccc1C`, the % of control in [9] (at 1 µM) is 88%; in assay [9] (at 10 µM), 100%.
